Patent US20140154269A1, “TARGETED NANOVECTORS AND THEIR USE FOR TREATMENT OF BRAIN TUMORS” (The Methodist Hospital Research Institute, priority 2011, published 2014)

How the values were obtained:
[1] = tested on: immortalized human glioblastoma cell cultures; settings: cited from earlier work
[2] = cited from earlier work
[3] = tested on: primary GBM cell cultures; test: Cell viability measurements (ddTUNEL, Dead Green, Hoechst staining) in primary GBM cultures; settings: 24 h; PEG-HCCs 2.6 nM, GFAPAB 3.9 nM, SN-38 2 μM
Method: Total, viable, and dead glioma cell numbers in confluent primary GBM cell cultures were measured using ddTUNEL (a quantitative assay for 3′ OH DNA ends), Dead Green, and Hoechst stains. Cells were treated with GFAPAB/SN-38/PEG-HCCs or saline for 24 h.
Primary human glioblastoma or astrocytoma cells were prepared from tumors within 10 min of their excision. The tumors were broken up using a pipette and then grown in DMEM, 20% FBS, GlutaMax-I, sodium pyruvate and Pen/Strep, for 2 weeks. After this time, and in all presented data, the same media was used, except that sodium pyruvate was omitted. […] GBM and NHA were grown to confluency in the appropriate media on Costar 96-well growth plates (Corning, N.Y.C, NY, USA). […] Cells were grown for 24 h in the presence or absence of all effectors, in a total volume of 250 μL.
The biotinylated ddUTP and biotinylated blunt ended oligonucleotide probe was visualized using Texas Red labeled avidin. […]
Cells were counted at 4× magnification using a Nikon Eclipse TE2000-E fluorescent microscope equipped with a CoolSnap ES digital camera system (Roper Scientific) containing an CCD-1300-Y/HS 1392×1040 imaging array cooled by a Peltier device. Images were recorded using Nikon NIS-Elements software as JEP2000 files.

Structure (SMILES)	LD50 range reported by others [1]	Log P [2]	toxicity towards GBM cells (average living cells from ddTUNEL, Dead Green, Hoechst) [3]
CCc1c2c(nc3ccc(O)cc13)-c1cc3c(c(=O)n1C2)COC(=O)[C@]3(O)CC [SN-38]	5 to 10 µM	1.87	not toxic
CC[C@]1(O)C[C@@H]2CN(CCc3c([nH]c4ccccc34)[C@@](C(=O)OC)(c3cc4c(cc3OC)N(C)[C@H]3[C@@](O)(C(=O)OC)[C@H](OC(C)=O)[C@]5(CC)C=CCN6CC[C@]43[C@@H]65)C2)C1 [Vin, Vinblastine]	–	4.8	–
